Laboratory results reported in PMC6348443 (Journal of Medicinal Chemistry, 2018).
Counter-ions that a name gives are not always drawn. Like-named read-outs stand apart in the source and are kept apart here.

How the values were obtained:
MOR [1] = target: T1, MOR (Rattus norvegicus, UniProt P33535); assay: competition radioligand binding, rat brain membranes, [3H]DAMGO; details: rat brain membranes; read-out: opioid receptor binding Ki MOR
T1 construct: Membranes were prepared from Sprague-Dawley rat brains or guinea-pig brains according to the described procedures; tissue Labortierkunde und Laborgenetik, Medizinische Universität Wien; host or cells: Sprague-Dawley rat brain without cerebella
Description: (§1) Competition binding assays using rat brain (MOR and DOR) and guinea-pig brain (KOR) membranes (Table 1) were performed according to published procedures.[44],[49] […] In addition, we have assessed binding at the human opioid receptors stably transfected in Chinese hamster ovary (CHO) cells (Table S1).
(§2) Membranes were prepared from Sprague-Dawley rat brains or guinea-pig brains according to the described procedures.[44],[45] Brains without cerebella were homogenized on ice in 5 vol/wt of ice-cold 50 mM Tris-HCl buffer (pH 7.4) and diluted in 30 vol/wt of the same buffer. After centrifugation at 40 000g for 20 min at 4 °C, the pellets were resuspended in 30 vol/wt of 50 mM Tris-HCl buffer (pH 7.4) and incubated at 37 °C for 30 min. The centrifugation step described above was repeated, and the final pellets were resuspended in 5 vol/wt of 50 mM Tris-HCl buffer (pH 7.4) containing 0.32 M sucrose and stored at −80 °C until use.
(§3) Rat brain membranes were incubated with either [^3H]DAMGO (1 nM, 45 min, 35 °C) or [^3H][Ile^5,6]deltorphin II (0.5 nM, 45 min, 35 °C) for labeling MOR or DOR receptors, respectively. Guinea-pig brain membranes were incubated with [^3H]U69,593 (1 nM, 30 min, 30 °C) for labeling KOR. Binding assays with CHO cell membranes were conducted at 25 °C for 60 min using [^3H]DAMGO (1 nM) or [^3H]diprenorphine (0.2 nM) for labeling MOR or DOR, respectively. Nonspecific binding was determined using 10 μM naloxone (rodent brain) or 1–10 μM of the unlabeled counterpart of each radioligand (CHO cells). Reactions were terminated by rapid filtration through Whatman glass fiber GF/C filters. Filters were washed three times with 5 mL of ice-cold 50 mM Tris-HCl buffer (pH 7.4) using a Brandel M24R cell harvester (Gaithersburg, MD). Radioactivity retained on the filters was counted by liquid scintillation counting using a Beckman Coulter LS6500 (Beckman Coulter Inc., Fullerton, CA). All binding experiments were performed in duplicate and repeated at least three times.
(§4) Data were analyzed and graphically processed using the GraphPad Prism 5.0 Software (GraphPad Prism Software Inc., San Diego, CA). For in vitro assays, inhibition constant (Ki in nM), potency (EC50 in nM), and efficacy (% stimulation) values were determined from concentration–response curves by nonlinear regression analysis. The Ki values were determined by the method of Cheng and Prusoff.[66] In the [^35S]GTPγS binding assays, efficacy was determined relative to the reference full opioid agonists, DAMGO (MOR), DPDPE (DOR), and U69,593 (KOR). In vitro data are presented as mean ± SEM of three to four independent experiments each performed in duplicate. […] Each experimental group included six to seven mice. Data were statistically evaluated using one-way ANOVA with Tukey’s post hoc test for multiple comparisons with significance set at P < 0.05.

KOR [2] = target: T2, KOR (Homo sapiens, UniProt P41145); assay: [35S]GTPγS binding assay, CHO-hKOR membranes; format: biochemical; details: for EC50: [35S]GTPγS, CHO human KOR membranes, read-out: KOR EC50; for functional profile at KOR (full/partial agonist): partial agonist <85% of the response to U69,593; for Emax: relative to reference full agonist U69,593, read-out: KOR % stim.
T2 construct: host or cells: CHO (CHO-hKOR)
Description: (§5) Efficacies are presented as percentage stimulation relative to the standard full agonists, [D-Ala^2,N-Me-Phe4,Gly-ol^5]enkephalin (DAMGO for MOR),[53] [D-Pen^2,D-Pen^5]enkephalin (DPDPE for DOR)[54] and N-methyl-2-phenyl-N-[(5R,7S,8S)-7-(pyrrolidin-1-yl)-1-oxaspiro[4.5]dec-8-yl]acetamide (U69,593 for KOR).[55]
(§6) Membranes from CHO cells expressing human opioid receptors were prepared in 50 mM Tris-HCl buffer (pH 7.7) according to a previously described procedure.[64] Cells expressing human opioid receptors grown at confluence were removed from the culture plates by scraping, homogenized in 50 mM Tris buffer (pH 7.7), using a Polytron homogenizer, then centrifuged once and washed by an additional centrifugation at 27 000g for 15 min, at 4 °C. The final pellet was resuspended in Tris buffer and stored at −80 °C until use. Protein content of brain and cell membrane preparation homogenates was determined by the method of Bradford using bovine serum albumin as the standard.[65]
(§7) Binding of [^35S]GTPγS to membranes from CHO cells stably expressing the human opioid receptors was conducted according to the published procedures.[49],[64] Cell membranes (5–10 μg) in 20 mM HEPES, 10 mM MgCl2, and 100 mM NaCl (pH 7.4) were incubated with 0.05 nM [^35S]GTPγS, 10 μM GDP, and various concentrations of test compound in a final volume of 1 mL, for 60 min at 25 °C. Nonspecific binding was determined using 10 μM GTPγS, and the basal binding was determined in the absence of test ligand. Samples are filtered over glass Whatman glass GF/B fiber filters and counted as described for binding assays. All experiments were performed in duplicate and repeated at least three times.
as §4

MOR [3] = target: T3, MOR (Homo sapiens, UniProt P35372); assay: [35S]GTPγS binding assay, CHO-hMOR membranes; format: biochemical; details: for Emax: relative to reference full agonist DAMGO, read-out: MOR % stim.
T3 construct: host or cells: CHO (CHO-hMOR)
Description: as §5, §6, §7, §4

DOR [4] = target: T4, DOR (Rattus norvegicus, UniProt P33533); assay: competition radioligand binding, rat brain membranes, [3H][Ile5,6]deltorphin II; details: rat brain membranes; read-out: opioid receptor binding Ki DOR
T4 construct: Membranes were prepared from Sprague-Dawley rat brains or guinea-pig brains according to the described procedures; tissue Labortierkunde und Laborgenetik, Medizinische Universität Wien; host or cells: Sprague-Dawley rat brain without cerebella
Description: as §1, §2, §3, §4

KOR [5] = target: T5, KOR (Cavia porcellus, UniProt P41144); assay: competition radioligand binding, guinea-pig brain membranes, [3H]U69,593; details: guinea-pig brain membranes; read-out: opioid receptor binding Ki KOR
T5 construct: Membranes were prepared from Sprague-Dawley rat brains or guinea-pig brains according to the described procedures; tissue Labortierkunde und Laborgenetik, Medizinische Universität Wien; host or cells: guinea-pig brain without cerebella
Description: as §1, §2, §3, §4

DOR [6] = target: T6, DOR (Homo sapiens, UniProt P41143); assay: [35S]GTPγS binding assay, CHO-hDOR membranes; format: biochemical; details: for increased agonist potency at DOR vs MOR: [35S]GTPγS EC50; for EC50: [35S]GTPγS, CHO human DOR membranes; for Emax: relative to reference full agonist DPDPE, read-out: DOR % stim.
T6 construct: host or cells: CHO (CHO-hDOR)
Description: as §5, §6, §7, §4

male CD1 mice = assay: acetic acid-induced writhing assay after sc administration; format: in vivo, mouse; details: for ED50: Mus musculus, 0.5 h, read-out: ED50 (95% CI), mice, sc, inhibition of writhing 30 min after drug administration
Description: Solutions of test compounds were prepared in sterile physiological 0.9% saline and further diluted to working doses in saline solution. Test compounds or saline (control) were administered by sc route in a volume of 10 μL/1 g of body weight. All doses are expressed in terms of salts. Separate groups of mice received the respective dose of compound, and individual mice were only used once for behavioral testing.
Writhing was induced in male CD1 mice by ip injection of a 0.6% acetic acid aqueous solution as described previously.[48],[62] Groups of mice were administered sc different doses of test compound or saline (control), and 5 min prior to testing (25 min after drug or saline), each animal received an ip injection of acetic acid solution. Each mouse was placed in individual transparent Plexiglas chambers, and the number of writhes was counted during a 10 min observation period. […] For the antagonism study, naloxone methiodide was sc co-administered with the respective opioid agonist, and writhing was assessed as described above.
as §4

[7] = [35S]GTPγS, CHO human MOR membranes, read-out: MOR EC50

| SMILES | Ki (MOR [1]) | EC50 (KOR [2]) | functional profile at KOR (full/partial agonist) (KOR [2]) | Emax (KOR [2]) | EC50 (MOR [3]; [7]) | Emax (MOR [3]) | Ki (DOR [4]) | Ki (KOR [5]) | increased agonist potency at DOR vs MOR (DOR [6]) | EC50 (DOR [6]) | Emax (DOR [6]) | ED50 (male CD1 mice) | EC50 (MOR [3]) | ED50 (95% CI) (male CD1 mice; mice, inhibition of writhing 30 min after drug administration) |
| --- | --- | --- | --- | --- | --- | --- | --- | --- | --- | --- | --- | --- | --- | --- |
| CO[C@@]12CC[C@@H](NCCCC(=O)O)[C@@H]3Oc4c(O)ccc5c4[C@@]31CCN(C)[C@@H]2C5 [Compound 21b] | 1.41 ± 0.13 nM | 3400 ± 1980 nM | full agonists | 74 ± 5% | 12.3 ± 6.8 nM | 86 ± 7% | 6.61 ± 0.67 nM | 147 ± 13 nM | 2–4 times | 6.06 ± 1.07 nM | 103 ± 6% | – | – | – |
| CO[C@@]12CC[C@H](N[C@H](C(=O)O)C(C)C)[C@@H]3Oc4c(O)ccc5c4[C@@]31CCN(C)[C@@H]2C5 [Compound 7a, (2S)-2-[(4,5α-Epoxy-3-hydroxy-14β-methoxy-17-methylmorphinan-6α-yl)amino]-3-methylbutyric Acid Dihydrochloride] | 3.16 ± 0.25 nM | 462 ± 126 nM | partial agonist | 51 ± 0.5% | 10.5 ± 4 nM | 95 ± 8% | 3.91 ± 0.3 nM | 325 ± 19 nM | – | 33.8 ± 8.9 nM | 91 ± 2% | – | – | – |
| CO[C@@]12CCC(=O)[C@@H]3Oc4c(O)ccc5c4[C@@]31CCN(C)[C@@H]2C5 [Compound 1, 14-O-methyloxymorphone, reference compound] | – | 116 ± 31 nM | – | 77 ± 5% | – | – | – | – | – | 37.3 ± 8.5 nM | 106 ± 1% | 3.26 µg/kg | – | – |
| CO[C@@]12CC[C@@H](N[C@@H](CCC(N)=O)C(=O)O)[C@@H]3Oc4c(O)ccc5c4[C@@]31CCN(C)[C@@H]2C5.Cl.Cl [Compound 12b, (2S)-4-Carbamoyl-2-[(4,5α-epoxy-3-hydroxy-14β-methoxy-17-methylmorphinan-6β-yl)amino]butanoic Acid Dihydrochloride] | – | 1410 ± 418 nM | – | 63 ± 17% | 9.54 ± 1.15 nM | 98 ± 4% | – | – | 2–4 times | 3.96 ± 0.07 nM | 103 ± 9% | – | – | – |
| CO[C@@]12CC[C@@H](N[C@@H](CO)C(=O)O)[C@@H]3Oc4c(O)ccc5c4[C@@]31CCN(C)[C@@H]2C5 [Compound 6b, (2S)-2-[(4,5α-Epoxy-3-hydroxy-14β-methoxy-17-methylmorphinan-6β-yl)amino]-3-hydroxypropionic Acid Dihydrochloride] | – | 201 ± 116 nM | full agonists | 88 ± 2% | 3.56 ± 0.76 nM | 101 ± 9% | – | – | – | 6.98 ± 4.24 nM | 98 ± 1% | – | – | – |
| CO[C@@]12CC[C@H](N[C@@H](CC(N)=O)C(=O)O)[C@@H]3Oc4c(O)ccc5c4[C@@]31CCN(C)[C@@H]2C5 [Compound 11a, (2S)-3-Carbamoyl-2-[(4,5α-epoxy-3-hydroxy-14β-methoxy-17-methylmorphinan-6α-yl)amino]propionic Acid Dihydrochloride] | – | 81.7 ± 12.3 nM | – | 67 ± 12% | 0.83 ± 0.17 nM | 99 ± 0.2% | – | – | – | 9.78 ± 3.32 nM | 106 ± 6% | < 20 µg/kg | < 1 nM | 15.2 (6.89–33.3) μg/kg |
